Source: ChEMBL document CHEMBL3885881, “DrugMatrix”

Species on record: Rattus norvegicus
Experiment: DrugMatrix - Regimen: Daily Repeat
Assay type: toxicity, organism-based, Sprague-Dawley
Design: regimen Daily Repeat, gender Male, age 6-8 weeks
Settings: in vivo, po, route oral GAVAGE, […]; for ABSOLUTE BASOPHIL / ABSOLUTE EOSINOPHIL / ABSOLUTE LYMPHOCYTE / ABSOLUTE MONOCYTE / ABSOLUTE SEGMENTED NEUTROPHIL / BASOPHIL / EOSINOPHIL / ERYTHROCYTE COUNT / HEMATOCRIT / HEMOGLOBIN / LEUKOCYTE COUNT / LYMPHOCYTE / MEAN CORPUSCULAR HEMOGLOBIN / MEAN CORPUSCULAR VOLUME / MONOCYTE / NEUTROPHIL / NUCLEATED RED BLOOD CELLS / PLATELET COUNT: tissue Blood; for ALANINE AMINOTRANSFERASE / ALBUMIN / ALKALINE PHOSPHATASE / ASPARTATE AMINOTRANSFERASE / BLOOD UREA NITROGEN / CARBON DIOXIDE / CHLORIDE / CHOLESTEROL / CREATINE PHOSPHOKINASE / CREATININE / GLUCOSE / LACTATE DEHYDROGENASE / LIPASE / PHOSPHORUS / POTASSIUM / SODIUM / TOTAL BILIRUBIN / TOTAL PROTEIN / URIC ACID: tissue Plasma
[1] = 0 mg/kg, 72 h, dose level Control, time 3 day
[2] = 0 mg/kg, 120 h, dose level Control, time 5 day
[3] = 70 mg/kg, 72 h, dose level M1, time 3 day

Q: CCCCCCCCc1ccc(O)cc1 [4-OCTYLPHENOL] was tested. Which “ABSOLUTE BASOPHIL” value [1] did it give?
A: 0 CELLS/uL

Q: What about the “ABSOLUTE EOSINOPHIL” value [1] of the same molecule?
A: 0 CELLS/uL

Q: And the “ABSOLUTE LYMPHOCYTE” value [1]?
A: 11091.17 CELLS/uL

Q: What about the “ABSOLUTE MONOCYTE” value [1] of the same molecule?
A: 172.17 CELLS/uL

Q: What about the “ABSOLUTE SEGMENTED NEUTROPHIL” value [1] of the same molecule?
A: 1186.67 CELLS/uL

Q: And the BASOPHIL [1]?
A: 0%

Q: And the EOSINOPHIL [1]?
A: 0%

Q: And the “ERYTHROCYTE COUNT” value [1]?
A: 5.87 x10E6/uL

Q: What about the HEMATOCRIT [1] of the same molecule?
A: 36.87%

Q: What about the HEMOGLOBIN [1] of the same molecule?
A: 14.03 G/DL

Q: What about the “LEUKOCYTE COUNT” value [1] of the same molecule?
A: 12.45 x10E3/uL

Q: What about the LYMPHOCYTE [1] of the same molecule?
A: 88.67%

Q: And the “MEAN CORPUSCULAR HEMOGLOBIN” value [1]?
A: 23.93 pg

Q: And the “MEAN CORPUSCULAR VOLUME” value [1]?
A: 62.73 fL

Q: What about the MONOCYTE [1] of the same molecule?
A: 1.5%

Q: What about the NEUTROPHIL [1] of the same molecule?
A: 9.83%

Q: And the “NUCLEATED RED BLOOD CELLS” value [1]?
A: 0 /100WBC

Q: And the “PLATELET COUNT” value [1]?
A: 1150.33 x10E3/uL

Q: What about the “ALANINE AMINOTRANSFERASE” value [1] of the same molecule?
A: 67.17 u/L

Q: What about the ALBUMIN [1] of the same molecule?
A: 4.03 G/DL

Q: What about the “ALKALINE PHOSPHATASE” value [1] of the same molecule?
A: 462.5 u/L

Q: What about the “ASPARTATE AMINOTRANSFERASE” value [1] of the same molecule?
A: 88 u/L

Q: What about the “BLOOD UREA NITROGEN” value [1] of the same molecule?
A: 13.17 mg/dL

Q: And the “CARBON DIOXIDE” value [1]?
A: 29.33 mmol/L

Q: What about the CHLORIDE [1] of the same molecule?
A: 101 MEQ/L

Q: What about the CHOLESTEROL [1] of the same molecule?
A: 69.17 mg/dL

Q: What about the “CREATINE PHOSPHOKINASE” value [1] of the same molecule?
A: 292.5 u/L

Q: And the CREATININE [1]?
A: 0.17 mg/dL

Q: And the GLUCOSE [1]?
A: 167.5 mg/dL

Q: What about the “LACTATE DEHYDROGENASE” value [1] of the same molecule?
A: 198.5 u/L

Q: And the LIPASE [1]?
A: 10.67 u/L

Q: What about the PHOSPHORUS [1] of the same molecule?
A: 11.73 mg/dL

Q: What about the POTASSIUM [1] of the same molecule?
A: 5.91 MEQ/L

Q: What about the SODIUM [1] of the same molecule?
A: 143.3 MEQ/L

Q: And the “TOTAL BILIRUBIN” value [1]?
A: 0.18 mg/dL

Q: What about the “TOTAL PROTEIN” value [1] of the same molecule?
A: 5.7 G/DL

Q: And the “URIC ACID” value [1]?
A: 1.3 mg/dL

Q: What about the “ABSOLUTE BASOPHIL” value [2] of the same molecule?
A: 0 CELLS/uL

Q: What about the “ABSOLUTE EOSINOPHIL” value [2] of the same molecule?
A: 64.33 CELLS/uL

Q: And the “ABSOLUTE LYMPHOCYTE” value [2]?
A: 12494.67 CELLS/uL

Q: And the “ABSOLUTE MONOCYTE” value [2]?
A: 117 CELLS/uL

Q: What about the “ABSOLUTE SEGMENTED NEUTROPHIL” value [2] of the same molecule?
A: 1340.67 CELLS/uL

Q: What about the BASOPHIL [2] of the same molecule?
A: 0%

Q: And the EOSINOPHIL [2]?
A: 0.33%

Q: And the “ERYTHROCYTE COUNT” value [2]?
A: 5.82 x10E6/uL

Q: What about the HEMATOCRIT [2] of the same molecule?
A: 36.97%

Q: And the HEMOGLOBIN [2]?
A: 14.18 G/DL

Q: What about the “LEUKOCYTE COUNT” value [2] of the same molecule?
A: 14.02 x10E3/uL

Q: And the LYMPHOCYTE [2]?
A: 89%

Q: And the “MEAN CORPUSCULAR HEMOGLOBIN” value [2]?
A: 24.42 pg

Q: And the “MEAN CORPUSCULAR VOLUME” value [2]?
A: 63.52 fL

Q: And the MONOCYTE [2]?
A: 0.83%

Q: And the NEUTROPHIL [2]?
A: 9.83%

Q: What about the “NUCLEATED RED BLOOD CELLS” value [2] of the same molecule?
A: 0 /100WBC

Q: What about the “PLATELET COUNT” value [2] of the same molecule?
A: 1097.83 x10E3/uL

Q: What about the “ALANINE AMINOTRANSFERASE” value [2] of the same molecule?
A: 58.83 u/L

Q: What about the ALBUMIN [2] of the same molecule?
A: 3.92 G/DL

Q: What about the “ALKALINE PHOSPHATASE” value [2] of the same molecule?
A: 414.17 u/L

Q: What about the “ASPARTATE AMINOTRANSFERASE” value [2] of the same molecule?
A: 89.17 u/L

Q: What about the “BLOOD UREA NITROGEN” value [2] of the same molecule?
A: 16.83 mg/dL

Q: And the “CARBON DIOXIDE” value [2]?
A: 29.17 mmol/L

Q: And the CHLORIDE [2]?
A: 100.33 MEQ/L

Q: And the CHOLESTEROL [2]?
A: 54.5 mg/dL

Q: And the “CREATINE PHOSPHOKINASE” value [2]?
A: 386.17 u/L

Q: And the CREATININE [2]?
A: 0.23 mg/dL

Q: What about the GLUCOSE [2] of the same molecule?
A: 184.17 mg/dL

Q: What about the “LACTATE DEHYDROGENASE” value [2] of the same molecule?
A: 229.17 u/L

Q: What about the LIPASE [2] of the same molecule?
A: 10.83 u/L

Q: And the PHOSPHORUS [2]?
A: 10.88 mg/dL

Q: And the POTASSIUM [2]?
A: 5.97 MEQ/L

Q: And the SODIUM [2]?
A: 142.2 MEQ/L

Q: And the “TOTAL BILIRUBIN” value [2]?
A: 0.12 mg/dL

Q: And the “TOTAL PROTEIN” value [2]?
A: 5.63 G/DL

Q: What about the “URIC ACID” value [2] of the same molecule?
A: 1.55 mg/dL

Q: And the “ABSOLUTE BASOPHIL” value [3]?
A: 0 CELLS/uL

Q: What about the “ABSOLUTE EOSINOPHIL” value [3] of the same molecule?
A: 0 CELLS/uL

Q: And the “ABSOLUTE LYMPHOCYTE” value [3]?
A: 11265.33 CELLS/uL

Q: And the “ABSOLUTE MONOCYTE” value [3]?
A: 137 CELLS/uL

Q: What about the “ABSOLUTE SEGMENTED NEUTROPHIL” value [3] of the same molecule?
A: 1431 CELLS/uL

Q: And the BASOPHIL [3]?
A: 0%

Q: What about the EOSINOPHIL [3] of the same molecule?
A: 0%

Q: What about the “ERYTHROCYTE COUNT” value [3] of the same molecule?
A: 5.68 x10E6/uL

Q: What about the HEMATOCRIT [3] of the same molecule?
A: 36.37%

Q: What about the HEMOGLOBIN [3] of the same molecule?
A: 13.93 G/DL

Q: What about the “LEUKOCYTE COUNT” value [3] of the same molecule?
A: 12.83 x10E3/uL

Q: What about the LYMPHOCYTE [3] of the same molecule?
A: 88%

Q: And the “MEAN CORPUSCULAR HEMOGLOBIN” value [3]?
A: 24.57 pg

Q: What about the “MEAN CORPUSCULAR VOLUME” value [3] of the same molecule?
A: 64.1 fL

Q: And the MONOCYTE [3]?
A: 1%

Q: What about the NEUTROPHIL [3] of the same molecule?
A: 11%

Q: What about the “NUCLEATED RED BLOOD CELLS” value [3] of the same molecule?
A: 0 /100WBC

Q: What about the “PLATELET COUNT” value [3] of the same molecule?
A: 1181.67 x10E3/uL

Q: What about the “ALANINE AMINOTRANSFERASE” value [3] of the same molecule?
A: 74 u/L

Q: What about the ALBUMIN [3] of the same molecule?
A: 3.87 G/DL

Q: What about the “ALKALINE PHOSPHATASE” value [3] of the same molecule?
A: 534.33 u/L

Q: And the “ASPARTATE AMINOTRANSFERASE” value [3]?
A: 88.33 u/L

Q: What about the “BLOOD UREA NITROGEN” value [3] of the same molecule?
A: 15 mg/dL

Q: And the “CARBON DIOXIDE” value [3]?
A: 27.33 mmol/L

Q: What about the CHLORIDE [3] of the same molecule?
A: 102.33 MEQ/L

Q: And the CHOLESTEROL [3]?
A: 67 mg/dL

Q: What about the “CREATINE PHOSPHOKINASE” value [3] of the same molecule?
A: 215 u/L

Q: And the CREATININE [3]?
A: 0.13 mg/dL

Q: And the GLUCOSE [3]?
A: 152.67 mg/dL

Q: And the “LACTATE DEHYDROGENASE” value [3]?
A: 181.67 u/L

Q: And the LIPASE [3]?
A: 10 u/L

Q: And the PHOSPHORUS [3]?
A: 11.4 mg/dL

Q: And the POTASSIUM [3]?
A: 5.59 MEQ/L

Q: What about the SODIUM [3] of the same molecule?
A: 144.4 MEQ/L

Q: And the “TOTAL BILIRUBIN” value [3]?
A: 0.13 mg/dL

Q: What about the “TOTAL PROTEIN” value [3] of the same molecule?
A: 5.53 G/DL

Q: What about the “URIC ACID” value [3] of the same molecule?
A: 1.63 mg/dL
